Values joined by “and” are separate entries in the source; they are usually repeats but may differ in a detail not shown here. Equal values may be shown once. Active and inactive are the calls of the source. How the calls were made is not given here.

These results are taken from PubChem BioAssay AID1745844 (Carcinogenic Potency Database (CPDB), 2022).

This data set deals with rodent lifetime carcinogenesis bioassay, tumor incidence TD50. The data set is described as follows: carcinogenic potency in animals, long-term in vivo studies, CPDB compilation (AID 1745844).

Regarding `C1N2CN3CN1CN(C2)C3`, the carcinogen call by setting is: (mouse, strain C3Hf/Dp, females, in drinking water, site: any site (literature study), lesion: several types, types named in the paper, dosed 60 weeks, study length 105 weeks) “negative (inactive)”; (mouse, strain C3Hf/Dp, females, in drinking water, site: liver, lesion: hepatoma, dosed 60 weeks, study length 105 weeks) “negative (inactive)”; (mouse, strain C3Hf/Dp, females, in drinking water, site: lung, lesion: adenoma, dosed 60 weeks, study length 105 weeks) “negative (inactive)”; (mouse, strain C3Hf/Dp, males, in drinking water, site: any site (literature study), lesion: several types, types named in the paper, dosed 60 weeks, study length 105 weeks) “negative (inactive)”; (mouse, strain C3Hf/Dp, males, in drinking water, site: liver, lesion: hepatoma, dosed 60 weeks, study length 105 weeks) “negative (inactive)”; (mouse, strain CTM, females, in drinking water, site: liver, lesion: angioma, dosed 50 weeks, study length 100 weeks) “negative (inactive)”. The carcinogen call is “negative (inactive)” (mouse, strain CTM, females, in drinking water, site: lung, lesion: adenoma, dosed 50 weeks, study length 100 weeks); “negative (inactive)” (mouse, strain CTM, males, in drinking water, site: any site (literature study), lesion: several types, types named in the paper, dosed 50 weeks, study length 100 weeks); “negative (inactive)” (mouse, strain CTM, males, in drinking water, site: liver, lesion: angioma, dosed 50 weeks, study length 100 weeks); “negative (inactive)” (mouse, strain CTM, males, in drinking water, site: lung, lesion: adenoma, dosed 50 weeks, study length 100 weeks); “negative (inactive)” (mouse, strain SWR, females, in drinking water, site: any site (literature study), lesion: several types, types named in the paper, dosed 60 weeks, study length 103 weeks); “negative (inactive)” (mouse, strain SWR, females, in drinking water, site: liver, lesion: one or several types, types not named, dosed 60 weeks, study length 103 weeks). Besides, the carcinogen call by setting is: (mouse, strain SWR, females, in drinking water, site: lung, lesion: adenoma, dosed 60 weeks, study length 103 weeks) “negative (inactive)”; (mouse, strain SWR, males, in drinking water, site: any site (literature study), lesion: several types, types named in the paper, dosed 60 weeks, study length 103 weeks) “negative (inactive)”; (mouse, strain SWR, males, in drinking water, site: liver, lesion: angioma, dosed 60 weeks, study length 103 weeks) “negative (inactive)”; (mouse, strain SWR, males, in drinking water, site: lung, lesion: adenoma, dosed 60 weeks, study length 103 weeks) “negative (inactive)”; (rat, strain Wistar, females, in drinking water, site: any site (literature study), lesion: several types, types named in the paper, dosed 104 weeks, study length 146 weeks) “negative (inactive)”; (rat, strain Wistar, females, in drinking water, site: liver, lesion: one or several types, types not named, dosed 104 weeks, study length 146 weeks) “negative (inactive)”. For the same compound, the carcinogen call by setting is: (rat, strain Wistar, males, in drinking water, site: any site (literature study), lesion: several types, types named in the paper, dosed 104 weeks, study length 146 weeks) “negative (inactive)”; (rat, strain Wistar, males, in drinking water, site: liver, lesion: liver-cell carcinoma, dosed 104 weeks, study length 146 weeks) “negative (inactive)”. The TD50 (commonly the 50% point of the dose-response relation for the toxic effect studied) reads like this: (mouse, strain C3Hf/Dp, females, in drinking water, site: liver, lesion: angioma, dosed 60 weeks, study length 105 weeks) 51900 mg/kg/day (inactive); (mouse, strain C3Hf/Dp, males, in drinking water, site: liver, lesion: angioma, dosed 60 weeks, study length 105 weeks) 32300 mg/kg/day (inactive); (mouse, strain C3Hf/Dp, males, in drinking water, site: lung, lesion: adenoma, dosed 60 weeks, study length 105 weeks) 293000 mg/kg/day (inactive); (mouse, strain CTM, females, in drinking water, site: Harderian gland, lesion: one or several types, types not named, dosed 50 weeks, study length 100 weeks) 26300 mg/kg/day (inactive); (mouse, strain CTM, females, in drinking water, site: any site (literature study), lesion: several types, types named in the paper, dosed 50 weeks, study length 100 weeks) 11600 mg/kg/day (inactive); (mouse, strain CTM, females, in drinking water, site: several sites, sites named in the paper, lesion: one or several types, types not named, dosed 50 weeks, study length 100 weeks) 20900 mg/kg/day (inactive).

For the compound `COC(=O)c1ccc(C(=O)OC)cc1`, the TD50 reads like this: (mouse, strain B6C3F1, females, in feed, site: any site (literature study), lesion: several types, types named in the paper, dosed 103 weeks, study length 105 weeks) 4340 mg/kg/day (inactive); (mouse, strain B6C3F1, females, in feed, site: lung, lesion: alveolar/bronchiolar adenoma + alveolar/bronchiolar carcinoma, dosed 103 weeks, study length 105 weeks) 44000 mg/kg/day; (mouse, strain B6C3F1, males, in feed, site: lung, lesion: alveolar/bronchiolar adenoma + alveolar/bronchiolar carcinoma, dosed 103 weeks, study length 104 weeks) 1160 mg/kg/day (inactive) and 1160 mg/kg/day; (rat, strain Fischer 344, females, in feed, site: any site (literature study), lesion: several types, types named in the paper, dosed 103 weeks, study length 105 weeks) 342 mg/kg/day (inactive). Besides, the carcinogen call (rat, strain Fischer 344, males, in feed, site: any site (literature study), lesion: several types, types named in the paper, dosed 103 weeks, study length 105 weeks) was “negative (inactive)”.

`Brc1c(Br)c(Br)c(Oc2c(Br)c(Br)c(Br)c(Br)c2Br)c(Br)c1Br`: the carcinogen call (mouse, strain B6C3F1, females, in feed, site: any site (literature study), lesion: several types, types named in the paper, dosed 103 weeks, study length 103 weeks) was “negative (inactive)”; the carcinogen call (rat, strain Sprague-Dawley Spartan, females, in feed, site: liver, lesion: hepatocellular tumor, dosed 105 weeks, study length 105 weeks) was “negative (inactive)”; the carcinogen call (rat, strain Sprague-Dawley Spartan, males, in feed, site: any site (literature study), lesion: several types, types named in the paper, dosed 100 weeks, study length 100 weeks) is “negative (inactive)”; the carcinogen call (rat, strain Sprague-Dawley Spartan, males, in feed, site: liver, lesion: hepatocellular tumor, dosed 100 weeks, study length 100 weeks) was “negative (inactive)”. Further, the TD50 (mouse, strain B6C3F1, females, in feed, site: liver, lesion: hepatocellular adenoma + hepatocellular carcinoma + neoplastic nodule, dosed 103 weeks, study length 103 weeks) came to 33400 mg/kg/day; the TD50 (mouse, strain B6C3F1, males, in feed, site: any site (literature study), lesion: several types, types named in the paper, dosed 103 weeks, study length 103 weeks) turned out to be 9060 mg/kg/day; the TD50 (mouse, strain B6C3F1, males, in feed, site: liver, lesion: hepatocellular adenoma + hepatocellular carcinoma + neoplastic nodule, dosed 103 weeks, study length 103 weeks) is 11200 mg/kg/day; the TD50 (mouse, strain B6C3F1, males, in feed, site: liver, lesion: hepatocellular adenoma + hepatocellular carcinoma, dosed 103 weeks, study length 103 weeks) was determined as 11200 mg/kg/day; the TD50 (mouse, strain B6C3F1, males, in feed, site: thyroid gland, lesion: follicular-cell adenoma + follicular-cell carcinoma, dosed 103 weeks, study length 103 weeks) worked out at 20500 mg/kg/day; the TD50 (rat, strain Fischer 344, females, in feed, site: any site (literature study), lesion: several types, types named in the paper, dosed 103 weeks, study length 104 weeks) came to 4380 mg/kg/day. In addition, the TD50 was 6580 mg/kg/day (rat, strain Fischer 344, females, in feed, site: liver, lesion: hepatocellular adenoma + hepatocellular carcinoma + neoplastic nodule, dosed 103 weeks, study length 104 weeks); 6580 mg/kg/day (rat, strain Fischer 344, females, in feed, site: liver, lesion: hepatocellular carcinoma + neoplastic nodule, dosed 103 weeks, study length 104 weeks); 7740 mg/kg/day (rat, strain Fischer 344, females, in feed, site: liver, lesion: neoplastic nodule, dosed 103 weeks, study length 104 weeks); 2230 mg/kg/day (rat, strain Fischer 344, males, in feed, site: any site (literature study), lesion: several types, types named in the paper, dosed 103 weeks, study length 104 weeks); 2220 mg/kg/day (rat, strain Fischer 344, males, in feed, site: liver, lesion: hepatocellular adenoma + hepatocellular carcinoma + neoplastic nodule, dosed 103 weeks, study length 104 weeks); 2220 mg/kg/day (rat, strain Fischer 344, males, in feed, site: liver, lesion: hepatocellular carcinoma + neoplastic nodule, dosed 103 weeks, study length 104 weeks). For the same compound, the TD50 by setting is: (rat, strain Fischer 344, males, in feed, site: liver, lesion: neoplastic nodule, dosed 103 weeks, study length 104 weeks) 2130 mg/kg/day; (rat, strain Fischer 344, males, in feed, site: pancreas, lesion: acinar-cell adenoma, dosed 103 weeks, study length 104 weeks) 13900 mg/kg/day; (rat, strain Sprague-Dawley Spartan, females, in feed, site: any site (literature study), lesion: several types, types named in the paper, dosed 105 weeks, study length 105 weeks) 0.987 mg/kg/day (inactive).

As to `O=C1CCC(=O)O1`, the carcinogen call by setting is: (mouse, strain B6C3F1, females, by gavage, site: any site (literature study), lesion: several types, types named in the paper, dosed 103 weeks, study length 104 weeks) “negative (inactive)”; (mouse, strain B6C3F1, males, by gavage, site: any site (literature study), lesion: several types, types named in the paper, dosed 103 weeks, study length 104 weeks) “negative (inactive)”; (rat, strain Fischer 344, females, by gavage, site: any site (literature study), lesion: several types, types named in the paper, dosed 103 weeks, study length 105 weeks) “negative (inactive)”; (rat, strain Fischer 344, males, by gavage, site: any site (literature study), lesion: several types, types named in the paper, dosed 103 weeks, study length 105 weeks) “negative (inactive)”. The TD50 came to 4690 mg/kg/day (mouse, strain B6C3F1, females, by gavage, site: lung, lesion: alveolar/bronchiolar adenoma + alveolar/bronchiolar carcinoma, dosed 103 weeks, study length 104 weeks) and 1300 mg/kg/day (rat, strain Fischer 344, females, by gavage, site: liver, lesion: hepatocellular adenoma + hepatocellular carcinoma + neoplastic nodule, dosed 103 weeks, study length 105 weeks).

For `CN(C)C(=O)Nc1ccc(Cl)c(Cl)c1`, the carcinogen call is “negative (inactive)” (mouse, strain B6AKF1, females, oral dosing, site: any site (literature study), lesion: several types, types named in the paper, dosed 76 weeks, study length 76 weeks); “negative (inactive)” (mouse, strain B6AKF1, females, oral dosing, site: liver, lesion: hepatoma, dosed 76 weeks, study length 76 weeks); “negative (inactive)” (mouse, strain B6AKF1, females, oral dosing, site: lung, lesion: adenoma, dosed 76 weeks, study length 76 weeks); “negative (inactive)” (mouse, strain B6AKF1, males, oral dosing, site: liver, lesion: hepatoma, dosed 76 weeks, study length 76 weeks); “negative (inactive)” (mouse, strain B6C3F1, females, oral dosing, site: liver, lesion: hepatoma, dosed 76 weeks, study length 76 weeks). Besides, the TD50 is 260 mg/kg/day (inactive) (mouse, strain B6AKF1, males, oral dosing, site: any site (literature study), lesion: several types, types named in the paper, dosed 76 weeks, study length 76 weeks); 437 mg/kg/day (inactive) (mouse, strain B6AKF1, males, oral dosing, site: lung, lesion: adenoma, dosed 76 weeks, study length 76 weeks); 388 mg/kg/day (inactive) (mouse, strain B6C3F1, females, oral dosing, site: any site (literature study), lesion: several types, types named in the paper, dosed 76 weeks, study length 76 weeks); 600 mg/kg/day (inactive) (mouse, strain B6C3F1, females, oral dosing, site: lung, lesion: adenoma, dosed 76 weeks, study length 76 weeks); 361 mg/kg/day (inactive) (mouse, strain B6C3F1, males, oral dosing, site: any site (literature study), lesion: several types, types named in the paper, dosed 76 weeks, study length 76 weeks); 1150 mg/kg/day (inactive) (mouse, strain B6C3F1, males, oral dosing, site: liver, lesion: hepatoma, dosed 76 weeks, study length 76 weeks). Also, the TD50 (mouse, strain B6C3F1, males, oral dosing, site: lung, lesion: adenoma, dosed 76 weeks, study length 76 weeks) was 1150 mg/kg/day (inactive).
